Experimental data: patent US9376420B2 (YUHAN CORPORATION, priority 2012, dated 2016)

Biological target: T1, human LXRβ (Homo sapiens, UniProt P55055)
T1 construct: expressed in transfected cells; host or cells: HEK293 cells (ATCC CRL-1573), transient transfection with pFA-hLXRβ/GAL4 and pUAS
T1 sequence (P55055 222-460 limits assumed): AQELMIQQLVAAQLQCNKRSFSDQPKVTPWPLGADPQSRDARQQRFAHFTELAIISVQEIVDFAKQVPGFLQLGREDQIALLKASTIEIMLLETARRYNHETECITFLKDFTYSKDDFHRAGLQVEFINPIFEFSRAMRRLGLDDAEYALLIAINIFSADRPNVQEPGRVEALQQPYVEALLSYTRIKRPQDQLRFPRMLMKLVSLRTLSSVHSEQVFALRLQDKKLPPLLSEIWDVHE
Assay: Assay for Transcriptional Activity of LXRβ (GAL4-hLXRβ LBD luciferase reporter, transient transfection)
Format: cell-based
Conditions: HEK293 cells transfected with pFA-hLXRβ/GAL4 and pUAS, 24 hours; for Emax: fold value in comparison with the control (DMSO-treated group); for EC50: increase of transcriptional activity of LXRβ, average of three independent tests
In short: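 HEK293 cells transiently co-transfected with GAL4-hLXRβ LBD and 5×GAL4-UAS luciferase reporter, treated 24 h at 37 °C with compounds over 9 points (0.01–50 μM, half-log). Luminescence read after lysis; EC50 from four-parameter fit, mean of three independent tests, with a known LXR agonist as positive control.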

Emax	EC50	Compound
29 fold	503 nM	CS(=O)(=O)c1cc(F)c(-c2ccc(C3CC(C(O)(C(F)(F)F)C(F)(F)F)=NN3c3ccc(F)cc3F)cc2)c(F)c1 (centres unmarked) [Example 389, 1-(2,4-difluoro-phenyl)-5-(2′,6′-difluoro-4′-methanesulfonyl-biphenyl-4-yl)-3-[di-(trifluoromethyl)-hydroxy-methyl]-4,5-dihydro-1H-pyrazole]
26 fold	147 nM	CS(=O)(=O)c1ccc(-c2ccc(C3CC(C(O)(C(F)(F)F)C(F)(F)F)=NN3c3ccc(F)cc3F)cc2)cc1C(F)(F)F (centres unmarked) [Example 392, 1-(2,4-difluoro-phenyl)-5-(4′-methanesulfonyl-3′-trifluoromethyl-biphenyl-4-yl)-3-[di-(trifluoromethyl)-hydroxy-methyl]-4,5-dihydro-1H-pyrazole]
39 fold	551 nM	OC(C1=NN(c2ccc(F)cc2F)C(c2ccc(-c3ccc(-n4cnnn4)cc3)cc2)C1)(C(F)(F)F)C(F)(F)F (centres unmarked) [Example 373, 1-(2,4-difluoro-phenyl)-5-(4′-tetrazol-1-yl-biphenyl-4-yl)-3-[di-(trifluoromethyl)-hydroxy-methyl]-4,5-dihydro-1H-pyrazole]
30 fold	744 nM	CCOC(=O)c1cncc(-c2ccc(C3CC(C(O)(C(F)(F)F)C(F)(F)F)=NN3c3ccc(F)cc3F)cc2)c1 (centres unmarked) [Example 378]
30 fold	354 nM	CS(=O)(=O)c1cccc(-c2cccc(N3N=C(C(O)(C(F)(F)F)C(F)(F)F)CC3c3ccccc3Cl)c2)c1 (centres unmarked) [Example 434, 5-(2-chloro-phenyl)-1-[3′-(methylsulfonyl)-biphenyl-3-yl]-3-[di-(trifluoromethyl)-hydroxy-methyl]-4,5-dihydro-1H-pyrazole]
15 fold	890 nM	OC(C1=NN(c2ccc(F)cc2F)C(c2ccc(-c3ccc(C(F)(F)F)nc3)cc2)C1)(C(F)(F)F)C(F)(F)F (centres unmarked) [Example 377, 1-(2,4-difluoro-phenyl)-5-[4-(6-trifluoromethyl-pyridin-3-yl)-phenyl]-3-[di-(trifluoromethyl)-hydroxy-methyl]-4,5-dihydro-1H-pyrazole]
17 fold	2240 nM	CSc1cccc(-c2cccc(N3N=C(C(O)(C(F)(F)F)C(F)(F)F)CC3c3ccccc3Cl)c2)c1 (centres unmarked) [Example 431, 5-(2-chloro-phenyl)-1-[3′-(methylsulfanyl)-biphenyl-3-yl]-3-[di-(trifluoromethyl)-hydroxy-methyl]-4,5-dihydro-1H-pyrazole]
74 fold	154 nM	CS(=O)(=O)N1CCCN(c2ccc(C3CC(C(O)(C(F)(F)F)C(F)(F)F)=NN3c3ccc(F)cc3F)cc2)CC1 (centres unmarked) [Example 410, 1-(2,4-difluoro-phenyl)-5-[4-(4-methanesulfonyl-homopiperazin-1-yl)-phenyl]-3-[di-(trifluoromethyl)-hydroxy-methyl]-4,5-dihydro-1H-pyrazole]
23 fold	1020 nM	CC(C)C(=O)N1CC=C(c2ccc(C3CC(C(O)(C(F)(F)F)C(F)(F)F)=NN3c3ccc(F)cc3F)cc2)CC1 (centres unmarked) [Example 402, 1-(2,4-difluoro-phenyl)-5-[4-(1-isobutyryl-1,2,3,6-tetrahydropyridin-4-yl)-phenyl]-3-[di-(trifluoromethyl)-hydroxy-methyl]-4,5-dihydro-1H-pyrazole]

Further lines, the compound ahead of its results:

Compound	Emax	EC50
CN(C)S(=O)(=O)c1cccc(-c2cccc(C3CC(C(F)(F)C(F)(F)F)=NN3c3ccc(F)cc3F)c2)c1 (centres unmarked) [Example 87, 1-(2,4-difluoro-phenyl)-5-(3′-dimethylsulfamoyl-biphenyl-3-yl)-3-pentafluoroethyl-4,5-dihydro-1H-pyrazole]	46 fold	91 nM
CS(=O)(=O)c1ccc(-c2cccc(C3CC(C(F)(F)C(F)(F)F)=NN3c3ccc(F)cc3F)c2)cc1C#N (centres unmarked) [Example 70, 5-[3′-cyano-4′-(methanesulfonyl)-biphenyl-3-yl]-1-(2,4-difluoro-phenyl)-3-pentafluoroethyl-4,5-dihydro-1H-pyrazole]	62 fold	466 nM
CCOc1ccc(-c2ccc(C3CC(C(O)(C(F)(F)F)C(F)(F)F)=NN3c3ccccc3Cl)cc2)cn1 (centres unmarked) [Example 269, 1-(2-chloro-phenyl)-5-[4-(6-ethoxy-pyridin-3-yl)-phenyl]-3-[di-(trifluoromethyl)-hydroxy-methyl]-4,5-dihydro-1H-pyrazole]	44 fold	7930 nM
C[S+]([O-])c1ccc(-c2cccc(C3CC(C(F)(F)C(F)(F)F)=NN3c3ccc(F)cc3F)c2)cc1 (centres unmarked) [Example 52, 1-(2,4-difluoro-phenyl)-5-(4′-methanesulfinyl-biphenyl-3-yl)-3-pentafluoroethyl-4,5-dihydro-1H-pyrazole]	56 fold	546 nM
COc1ncc(-c2cccc(C3CC(C(F)(F)C(F)(F)F)=NN3c3ccc(F)cc3F)c2)cc1C=O (centres unmarked) [Example 73, 1-(2,4-difluoro-phenyl)-5-(3-(3-formyl-2-methoxy-pyridin-5-yl)-phenyl)-3-pentafluoroethyl-4,5-dihydro-1H-pyrazole]	13 fold	1070 nM
COc1ncc(-c2cccc(C3CC(C(F)(F)C(F)(F)F)=NN3c3ccc(F)cc3F)c2)cc1CO (centres unmarked) [Example 90, 1-(2,4-difluoro-phenyl)-5-[3-(5-hydroxymethyl-6-methoxy-pyridin-3-yl)-phenyl]-3-pentafluoroethyl-4,5-dihydro-1H-pyrazole]	33 fold	2650 nM
CS(=O)(=O)c1ccc(-c2cccc(C3CC(C(F)(F)C(F)(F)F)=NN3c3ccc(F)cc3F)c2)cn1 (centres unmarked) [Example 92, 1-(2,4-difluoro-phenyl)-5-[3-(6-methanesulfonyl-pyridin-3-yl)-phenyl]-3-pentafluoroethyl-4,5-dihydro-1H-pyrazole]	81 fold	344 nM
CS(=O)(=O)c1ccc(-c2cccc(C3CC(C(F)(F)C(F)(F)F)=NN3Cc3ccccc3Cl)c2)cc1 (centres unmarked) [Example 54, 1-(2-chloro-benzyl)-5-(4′-methanesulfonyl-biphenyl-3-yl)-3-pentafluoroethyl-4,5-dihydro-1H-pyrazole]	17 fold	6430 nM
O=S(=O)(N1CC=C(c2ccc(C3CC(C(O)(C(F)(F)F)C(F)(F)F)=NN3c3ccccc3Cl)cc2)CC1)N1CCCC1 (centres unmarked) [Example 308, 1-(2-chloro-phenyl)-5-{4-[1-(pyrrolidine-1-sulfonyl)-1,2,3,6-tetrahydropyridin-4-yl]-phenyl}-3-[di-(trifluoromethyl)-hydroxy-methyl]-4,5-dihydro-1H-pyrazole]	36 fold	495 nM
O=S(=O)(C1CC1)N1CC=C(c2cncc(C3CC(C(F)(F)C(F)(F)F)=NN3c3ccc(F)cc3F)c2)CC1 (centres unmarked) [Example 168, 1-(2,4-difluoro-phenyl)-5-[3-(1-cyclopropanesulfonyl-1,2,3,6-tetrahydropyridin-4-yl)-pyridin-5-yl]-3-pentafluoroethyl-4,5-dihydro-1H-pyrazole]	30 fold	6120 nM
CS(=O)(=O)c1cccc(-c2ccc(C3CC(C(F)(F)C(F)(F)F)=NN3c3ccccc3Cl)cc2)c1 (centres unmarked) [Example 5, 1-(2-chloro-phenyl)-5-[3′-(methylsulfonyl)-biphenyl-4-yl]-3-pentafluoroethyl-4,5-dihydro-1H-pyrazole]	48 fold	330 nM
CC(=O)Nc1cccc(-c2ccc(C3CC(C(O)(C(F)(F)F)C(F)(F)F)=NN3c3ccccc3Cl)cc2)c1 (centres unmarked) [Example 309, 5-(3′-acetaminobiphenyl-4-yl)-1-(2-chloro-phenyl)-3-[di-(trifluoromethyl)-hydroxy-methyl]-4,5-dihydro-1H-pyrazole]	84 fold	1940 nM
CS(=O)(=O)c1ccc(-c2cccc(C3CC(C(F)(F)C(F)(F)F)=NN3c3ccc(F)cc3F)c2)nc1 (centres unmarked) [Example 81, 1-(2,4-difluoro-phenyl)-5-[3-(5-methanesulfonyl-pyridin-2-yl)-phenyl]-3-pentafluoroethyl-4,5-dihydro-1H-pyrazole]	78 fold	1400 nM
OC(C1=NN(c2ccccc2Cl)C(c2ccc(-c3cccnc3)cc2)C1)(C(F)(F)F)C(F)(F)F (centres unmarked) [Example 277, 1-(2-chloro-phenyl)-5-[4-(pyridin-3-yl)-phenyl]-3-[di-(trifluoromethyl)-hydroxy-methyl]-4,5-dihydro-1H-pyrazole]	65 fold	364 nM
CN(C)S(=O)(=O)N1CCCN(c2ccc(C3CC(C(O)(C(F)(F)F)C(F)(F)F)=NN3c3ccccc3Cl)cc2)CC1 (centres unmarked) [Example 326, 1-(2-chloro-phenyl)-5-[4-(4-dimethylsulfamoyl-homopiperazin-1-yl)-phenyl]-3-[di-(trifluoromethyl)-hydroxy-methyl]-4,5-dihydro-1H-pyrazole]	51 fold	550 nM
OC(C1=NN(c2ccccc2Cl)C(c2ccc(-c3ccc(C(F)(F)F)cc3)cc2)C1)(C(F)(F)F)C(F)(F)F (centres unmarked) [Example 247, 1-(2-chloro-phenyl)-5-[4′-(trifluoromethyl)-biphenyl-4-yl]-3-[di-(trifluoromethyl)-hydroxy-methyl]-4,5-dihydro-1H-pyrazole]	33 fold	2030 nM
